From PubChem BioAssay (NCI) come the findings set out here.

Among the test systems are TK-10 renal; HCT-116 colon; SNB-75 CNS; SK-MEL-2 melanoma; MALME-3M melanoma; MCF7 breast; UACC-62 melanoma; DU-145 prostate; SK-MEL-28 melanoma; UACC-257 melanoma; SK-OV-3 ovarian; SN12C renal; SNB-19 CNS.
Holding throughout (assay): NCI tumour cell line growth inhibition, 48 h

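Each compound was tested at five concentrations against cells in 96-well plates for 48 hours. TGI: concentration producing complete growth inhibition.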

`CC(C)=CCC[C@@H](C)C1=C(O)C(N[C@H](C)c2ccccc2)=C(C)C(=O)C1=O`: the TGI with TK-10 renal is 26.3 µM; in the assay on HCT-116 colon it was 20.4 µM; in the assay on SNB-75 CNS, more than 56.4 µM; with SK-MEL-2 melanoma, 29.3 µM; in the assay with MALME-3M melanoma, 14.6 µM; in the assay on MCF7 breast, 17.9 µM. Further, the TGI was 9.71 µM in the assay with UACC-62 melanoma; 38.9 µM with DU-145 prostate; more than 46.7 µM in the assay with SK-MEL-28 melanoma; 53.4 µM with UACC-257 melanoma; 45.4 µM in the assay with SK-OV-3 ovarian; 53.2 µM in the assay on SN12C renal. The same molecule registered a TGI with SNB-19 CNS of more than 100 µM.
`CCOC(=O)Cc1c(C(=O)OCC)[n+](=O)c2cc(Cl)c(Cl)cc2n1[O-]`: the TGI with TK-10 renal stood at 2.83 µM; with HCT-116 colon, 7.27 µM; in the assay with SNB-75 CNS it was 4.63 µM; with SK-MEL-2 melanoma, 7.73 µM; with MALME-3M melanoma, 3.21 µM; in the assay on MCF7 breast, 13.3 µM. The TGI turned out to be 5.45 µM in the assay on UACC-62 melanoma; 3.68 µM in the assay with DU-145 prostate; 17.4 µM in the assay on SK-MEL-28 melanoma; 5.51 µM in the assay with UACC-257 melanoma; 11.9 µM with SK-OV-3 ovarian; 6.95 µM with SN12C renal. In addition, in the assay with SNB-19 CNS, the TGI was determined as 11.9 µM.
With `COC(=O)[C@@H]1c2c(oc3cc(CO)cc(O)c3c2=O)C=C[C@H]1O`, the TGI was found to be 6.8 µM with TK-10 renal; 5.98 µM in the assay with HCT-116 colon; 31.7 µM in the assay with SNB-75 CNS; 28.9 µM in the assay on SK-MEL-2 melanoma; 4.91 µM in the assay on MALME-3M melanoma; 12 µM with MCF7 breast. In addition, the TGI in the assay with UACC-62 melanoma is 25 µM; in the assay on DU-145 prostate it was 11.7 µM; with SK-MEL-28 melanoma, 18.1 µM; with UACC-257 melanoma it was 21.5 µM; in the assay on SK-OV-3 ovarian, 35.4 µM; in the assay on SN12C renal it was 23.6 µM. The TGI with SNB-19 CNS worked out at 33.5 µM.
With `Nc1nc(N)c2nc(CN(C=O)c3ccc(C(=O)O)cc3)cnc2n1`, the TGI with TK-10 renal, with HCT-116 colon, with SNB-75 CNS, with SK-MEL-2 melanoma, in the assay on MALME-3M melanoma and in the assay with MCF7 breast was more than 100 µM throughout. Besides, the TGI with UACC-62 melanoma, in the assay on DU-145 prostate, in the assay on SK-MEL-28 melanoma, in the assay with UACC-257 melanoma, in the assay with SK-OV-3 ovarian and in the assay with SN12C renal was more than 100 µM in each case. For the same molecule, in the assay on SNB-19 CNS, the TGI was more than 100 µM.
Turning to `O=c1cc(NNc2cccc3ccccc23)[nH]c(=O)[nH]1`, the TGI in the assay with TK-10 renal worked out at 33.8 µM; in the assay on HCT-116 colon it was 31.2 µM; in the assay with SNB-75 CNS, 31.4 µM; in the assay on SK-MEL-2 melanoma, 28.4 µM; with MALME-3M melanoma, 31.8 µM; in the assay with MCF7 breast, 4.74 µM. Besides, the TGI is 31.8 µM in the assay with UACC-62 melanoma; 28.6 µM in the assay with DU-145 prostate; 33.3 µM in the assay with SK-MEL-28 melanoma; 29.4 µM in the assay with UACC-257 melanoma; 88.6 µM in the assay with SK-OV-3 ovarian; 29.9 µM in the assay with SN12C renal. In the assay on SNB-19 CNS, this molecule showed a TGI of 29 µM.
In the case of `O/N=C\c1c2c(cc3c1CCC3)CCC2`, the TGI with TK-10 renal, in the assay on HCT-116 colon, with SNB-75 CNS, in the assay on SK-MEL-2 melanoma, in the assay on MALME-3M melanoma and in the assay on MCF7 breast was more than 100 µM throughout. The TGI in the assay with UACC-62 melanoma, in the assay on DU-145 prostate, with SK-MEL-28 melanoma, in the assay on UACC-257 melanoma, with SK-OV-3 ovarian and with SN12C renal was more than 100 µM throughout. In the assay with SNB-19 CNS, this molecule returned a TGI of more than 100 µM.
For `CC(=O)O[C@H]1[C@@H](N2CCOCC2)C[C@H]2[C@@H]3CC=C4C[C@@H](N5CCCC5)CC[C@]4(C)[C@H]3CC[C@@]21C`, the TGI with TK-10 renal, in the assay with HCT-116 colon, in the assay with SNB-75 CNS, in the assay on SK-MEL-2 melanoma, with MALME-3M melanoma and with MCF7 breast was more than 100 µM throughout. Also, the TGI with UACC-62 melanoma, in the assay on DU-145 prostate, in the assay with SK-MEL-28 melanoma, in the assay with UACC-257 melanoma, with SK-OV-3 ovarian and with SN12C renal was more than 100 µM in each case. The molecule further yielded a TGI in the assay on SNB-19 CNS of more than 100 µM.
`Cc1c(C#N)c2nnn(-c3cccc(Cl)c3)c(=O)n2c1-c1ccccc1`: the TGI is more than 100 µM with TK-10 renal; 38.2 µM in the assay with HCT-116 colon; 7.76 µM in the assay on SNB-75 CNS; 8.95 µM in the assay on SK-MEL-2 melanoma; more than 100 µM with MALME-3M melanoma; 35.4 µM with MCF7 breast. Further, the TGI was 36 µM with UACC-62 melanoma; 40.4 µM in the assay with DU-145 prostate; more than 100 µM in the assay with SK-MEL-28 melanoma; more than 100 µM in the assay with UACC-257 melanoma; more than 100 µM with SK-OV-3 ovarian; 62 µM in the assay with SN12C renal. The TGI in the assay with SNB-19 CNS is more than 100 µM.
Consider `CN(C)S(=O)(=O)c1ccc2[nH]c(O)c(C3=Nc4ccccc4C3=O)c2c1`, for which the TGI with TK-10 renal was 40 µM; in the assay with HCT-116 colon, 70.1 µM; in the assay on SNB-75 CNS, 10.3 µM; in the assay on SK-MEL-2 melanoma, 44.7 µM; in the assay on MALME-3M melanoma, more than 100 µM; in the assay with MCF7 breast, more than 100 µM. Besides, the TGI with UACC-62 melanoma is 34.9 µM; in the assay with DU-145 prostate, 94 µM; in the assay with SK-MEL-28 melanoma it was more than 100 µM; with UACC-257 melanoma, more than 100 µM; in the assay with SK-OV-3 ovarian, 28.5 µM; in the assay with SN12C renal, more than 100 µM. This molecule also returned a TGI in the assay with SNB-19 CNS of 42.6 µM.
For the molecule `Cc1ccc(C2=CC(=O)/C(=C\C(=O)c3ccc(Br)cc3)O2)c(C)c1`, the TGI is 15.9 µM in the assay with TK-10 renal; 19.8 µM in the assay on HCT-116 colon; 28.2 µM in the assay with SNB-75 CNS; more than 100 µM in the assay with SK-MEL-2 melanoma; 21.3 µM in the assay with MALME-3M melanoma; 23.8 µM in the assay with MCF7 breast. Further, the TGI with UACC-62 melanoma is 22.7 µM; with DU-145 prostate, more than 69.5 µM; in the assay on SK-MEL-28 melanoma, 40.1 µM; with UACC-257 melanoma it was more than 48.6 µM; with SK-OV-3 ovarian, 29 µM; in the assay on SN12C renal, more than 21.8 µM. The TGI with SNB-19 CNS is more than 49.1 µM.
As for `Cc1nn2c(=O)c([N+](=O)[O-])c(/C=C/c3ccc(F)cc3)nc2s1`, the TGI in the assay with TK-10 renal is 20.7 µM; in the assay with HCT-116 colon, 15.1 µM; in the assay with SNB-75 CNS, 31.3 µM; with SK-MEL-2 melanoma it was 19.3 µM; in the assay on MALME-3M melanoma, 16.7 µM; with MCF7 breast, 13.3 µM. For the same molecule, the TGI with UACC-62 melanoma is 17.5 µM; in the assay on DU-145 prostate, more than 31.6 µM; with SK-MEL-28 melanoma, 19.7 µM; with UACC-257 melanoma it was 22.3 µM; in the assay with SK-OV-3 ovarian, more than 31.6 µM; in the assay with SN12C renal, 21.2 µM. Besides, the TGI in the assay with SNB-19 CNS turned out to be 23.2 µM.
